Earlier results on one molecule are cited in patent publication US11458150B2 (priority 2019, dated 2022).

For this data set, the system named is pellagra patients. The settings on record: in vivo.

SMILES strings stand for the structures.

`O=C(O)c1cccnc1` [nicotinic acid]: the “effect on symptoms of pellagra” value is on record as “disappearance of many symptoms of the disease” and the “time to blanching of acute erythematous dermal lesions with intact epithelium” value was no more than 48 h.
